Results on 4 compounds are retold here after US20240316055A1, “METHODS FOR TREATING LEIGH SYNDROME” (DBCC Research, LLC, priority 2023, published 2024).

Test [1] relates to ECHS1 Fibroblast cells. Put plainly: Galactose potency screen (cell viability, DAPI nuclei count). The class given is cell-based. As to conditions: galactose potency screen, FIG. 2. The procedure:
Galactose Screen: Compound library plates were obtained from Prestwick/Selleck and SPECS (7,591 compounds total, 27 compounds/plate/concentration at 1 μM and 10 μM, 384-well plates). ECHS1 Fibroblast cells were harvested at 95% confluent with trypsin and suspended in Dulbecco's Modified Eagle Medium (DMEM)+10% Fetal Bovine Serum (FBS). The suspension was centrifuged at 200x g for 5 min. The suspension was discarded and the pellet was resuspended in the 5.5 mM galactose medium (DMEM+10% FBS+5.5 mM galactose) and seeded at 750 cells/well (50 μL) into the compound wells (1 μM and 10 μM). For the positive control experiment, the cells were suspended in 5.5 mM galactose medium+5.5 mM glucose+0.01% DMSO and seeded at 750 cells/well (50 μL) into the blank wells. For the negative control experiment, the cells were suspended in the 5.5 mM galactose medium+0.01% DMSO and seeded at 750 cells/well (50 μL) into the blank wells. The seeded plates were incubated at 37° C. for 96 hours, then 15 μL/well of 16% paraformaldehyde solution was added to the plates and allowed to sit for 15 min to fix the cells. The plates were then washed 3x with 50 μL/well of phosphate-buffered saline (PBS). The cells were stained with […] of a solution of 4,6-diamidino-2-phenylindole dilactate (DAPI, Invitrogen) and left at room temperature for 1 hr. The plates were then washed 3x with 50 μL/well of PBS prior to imaging. Agilent BioTek EL406 Microplate Washer Dispenser was used for the cell fixation and staining protocol. The plates were imaged using GE InCell2200 Cell Analyzer using PerkinElmer Columbus software quantification protocol. The data was analyzed using Genedata, Vortex, and Abase software. A Z-score value of >2 was used for the Prestwick/Selleck compound library and >3 for the SPECS library (based on the negative control population) to determine hit selection.
ECHS1 Fibroblast cells were harvested at 70-80% confluent with trypsin and suspended in DMEM+10% FBS. The suspension was centrifuged at 200x g for 5 min. The suspension was discarded and the pellet was resuspended in the either the 5.5 mM galactose medium (DMEM+10% FBS+5.5 mM of galactose) or the 10 mM propionate medium (DMEM+10% FBS+10 mM sodium propionate). The cells were seeded at 750 cells/well (50 μL) into a 384-well plate containing the test compounds (3-fold serial dilution across 10 plates, starting at 10 uM). For the positive control experiment, the cells were suspended in either the 5.5 mM galactose medium or 10 mM propionate medium+5.5 mM glucose+0.01% DMSO and seeded at 750 cells/well (50 μL) into the blank wells. For the negative control experiment, the cells were suspended in the 5.5 mM galactose or 10 mM propionate medium +0.01% DMSO and seeded at 750 cells/well (50 μL) into the blank wells. The seeded plates were incubated at 37° C. for 96 hours, then 15 μL/well of 16% paraformaldehyde solution was added to the plates and allowed to sit for 15 min to fix the cells. The plates were then washed 3x with 50 μL/well of PBS. The cells were stained with 25 μL/well of a solution of DAPI and left at room temperature for 1 hr. The plates were then washed 3x with 50 μL/well of PBS prior to imaging. Agilent BioTek EL406 Microplate Washer Dispenser was used for the cell fixation and staining protocol. The plates were imaged using GE InCell2200 Cell Analyzer using PerkinElmer Columbus software quantification protocol. The data was analyzed using Genedata, Vortex, and Abase software. A Z-score value of >2 was used for both the Prestwick/Selleck and SPECS library (based on the negative control population) to determine hit selection.

The subject of test [2] is ECHS1 knockdown larvae. Put plainly: Fly larva experiment: buoyancy (float/sink). As to conditions: multiple doses fed to larvae; untreated ECHS1 knockdown larvae 30% sank. The class given is in vivo, Drosophila. The text has this: To determine whether the Drosophila larvae experiment would be appropriate for further evaluation of compounds, the phenotype induced by ECHSI RNAi was identified. […] It was noted that when extracted from food and placed in 1X PBS, ECHS1 knockdown larvae were buoyant and sank only ˜30% of the time, while age-matched control larvae always sank at 100% frequency.
To test the ability of drug compounds to rescue these two ECHS1 knockdown phenotypes, the larvae were fed with fly food with various concentrations of 10 candidate drugs and first measured for larval size. During the 6 days prior to collection and phenotyping, larvae were raised in the drug food and exposed to drug continuously throughout development. […] Independently, losmapimod, talmapimod, ralimetinib, and neflamapimod were selected at multiple doses and fed to larvae and the population-wide float/sink proportions were assayed. In contrast to untreated ECHS1 knockdown larvae, where 30% sank, treatment with drug compounds nearly doubled the sinking proportions to 60%. Considering the effect of ECHSI on buoyancy in light of its enzymatic function catalyzing the second step of mitochondrial fatty acid beta-oxidation, decreased ECHS1 activity was expected to increase levels of non-metabolized lipid which would increase buoyancy. Thus, compounds were identified that suppressed both quantitative and nominal phenotypes, one of which appears to be directly relevant to the enzymatic function of ECHS1.

Test [3] has as its system ECHS1 patient-derived fibroblasts. Put plainly: Mitochondrial respiration assay (Seahorse). As to conditions: 48 hours; for respiration: glucose or galactose conditions, 1, 5 or 10 μM. The class given is cell-based. The text has this:
To assess the mechanism of action of hit compounds from the screens of previous Examples, which were based on rescue of viability after metabolic challenge, Seahorse assay was used to measure mitochondrial function in response to treatment at multiple concentrations. The Seahorse assay measures the following parameters: oxygen consumption; basal respiration rate; ATP-linked respiration; maximal respiration; reserve capacity; and ATP production rate. At baseline (no treatment), the ECHS1 patient-derived fibroblasts had lower respiration rates than the control fibroblasts in glucose culturing conditions (20% reduction) and in galactose culturing conditions (30% reduction).
ECHS1 patient-derived fibroblasts and age-matched and sex-matched control fibroblasts were initially grown in standard media (DMEM+2 mM glutamine+1 mM pyruvate) containing 10 mM glucose as the energy source. Cells were seeded into specialized 96-well plates at a density of 10,000 cells per well. One day after plating, cells were treated with the test compounds at the concentrations of 0, 1, 5, or 10 μM. Half of the samples were cultured in 10 mM glucose media in addition to the test compounds. The remaining half of the sample were cultured in 10 mM galactose media, which is a metabolic challenge, in addition to the test compound. Test compounds were incubated with cells for 48 hours. According to the standard Seahorse protocol, the following stressors were added to cells in sequential order: 2 μM oligomycin; 5 μM carbonyl cyanide-4-(trifluoromethoxy)phenylhydrazone (FCCP); 9 μM FCCP; 2 μM rotenone and 2 μM antimycin A. Data were normalized to cell number per well using a Hoechst stain for cell nuclei. Two rounds of experiments were conducted. The results were consistent between the two rounds.

On to `O=c1ncn2nc(Sc3ccc(F)cc3F)ccc2c1-c1c(Cl)cccc1Cl` [neflamapimod, 5-(2,6-dichlorophenyl)-2-(2,4-difluorophenyl)sulfanylpyrimido[1,6-b]pyridazin-6-one], for which the concentration-dependent curves entry in test [1] is given as “non-linear response”. The sinking proportions in test [2] worked out at 60%.

Consider `CC(C)(C)Cn1c(N)nc2ccc(-c3[nH]c(C(C)(C)C)nc3-c3ccc(F)cc3)nc21` [ralimetinib, 5-[2-tert-butyl-4-(4-fluorophenyl)-1H-imidazol-5-yl]-3-(2,2-dimethylpropyl)imidazo[4,5-b]pyridin-2-amine], for which, in test [3], the respiration entry is given as “did not result in major changes”. The concentration-dependent curves entry in test [1] is “non-linear response”. The same compound came in with a sinking proportions in test [2] of 60%.

Take `C[C@@H]1CN(Cc2ccc(F)cc2)[C@@H](C)CN1C(=O)c1cc2c(C(=O)C(=O)N(C)C)cn(C)c2cc1Cl` [talmapimod, 2-[6-chloro-5-[(2R,5S)-4-[(4-fluorophenyl)methyl]-2,5-dimethylpiperazine-1-carbonyl]-1-methylindol-3-yl]-N,N-dimethyl-2-oxoacetamide]: the ATP production rates result in test [3] is “no change”. In test [3] (glucose-treated cells, 10 μM), the “increase in maximal respiration” value is recorded as 11%. For the same compound, the maximal respiration entry in test [3] (glucose-treated cells) is “dose-dependent increase”. Besides, the concentration-dependent curves result in test [1] is on record as “non-linear response”. Besides, the sinking proportions in test [2] came out at 60%.

As for `Cc1c(F)cc(C(=O)NC2CC2)cc1-c1ccc(C(=O)NCC(C)(C)C)cn1` [losmapimod, 6-[5-(cyclopropylcarbamoyl)-3-fluoro-2-methylphenyl]-N-(2,2-dimethylpropyl)pyridine-3-carboxamide], the respiration entry in test [3] was “did not result in major changes”. In addition, in test [2], the sinking proportions is 60%.
